Read-outs that look alike come from different tables or passages of the source.
Tests used:
Jurkat cell SOCE [1] = assay: Thapsigargin-induced SOCE in Jurkat cells, Indo-1 [Ca2+]cyt measurement; assay type: cell-based, human; settings: for Ki: 1 µM thapsigargin 10 min, compound added 30 s prior to 1 mM CaCl2
Procedure: To visualize SOCE, we performed a classical protocol: Jurkat cells in Ca^2+-free HBS medium are stimulated by 1 µM thapsigargin (TG, black arrow, Figure 2A) during 600 s to allow the release of Ca^2+ ions by the ER, and the subsequent opening of the store-operated Ca^2+ channels (SOCC). Addition of 1 mM CaCl2 allowed for a massive entry of Ca^2+ ions through SOCC leading thus to an increase of the cytosolic calcium concentration ([Ca^2+]cyt). To test 2-APB and its analogues, different concentrations of compounds were added 30 s prior to Ca^2+ addition.
[Ca^2+]cyt was recorded by a fluorimetric ratio technique as previously described. Leukocytes were spun and resuspended at a density of 10^6 cells/mL in Hepes buffered saline (HBS; 135 mM NaCl, 5.9 mM KCl, 1.2 mM MgCl2, 11.6 mM Hepes, 11.5 mM glucose adjusted to pH 7.3 with NaOH). Due to the presence of 0.002% Ca^2+ in the NaCl, this HBS medium contained 0.1 mM of Ca^2+. Then, cells were incubated in the dark with 4 μM Indo-1-AM for one hour at room temperature under slow agitation. Cells were then centrifuged and resuspended in HBS medium before measurement. To perform the experiments, 0.5 to 1 × 10^6 cells were suspended in 2 mL HBS in a quartz cuvette and inserted into a spectrofluorophotometer (RF-1501 Shimadzu Corporation, Kyoto, Japan) connected to a PC computer (Dell Computer Corp., Montpellier, France). A temperature of 37°C was maintained by circulating water from a bath. Ultraviolet light of 360 nm was used for excitation of Indo-1, and emissions at 405 and 480 nm were recorded. Background and autofluorescence of the cell suspension were subtracted from the recordings. The maximum Indo-1 fluorescence (Rmax) was obtained by adding 1 µM ionomycin to the cell suspension in the presence of 10 mM extracellular CaCl2. Minimum fluorescence was determined following the depletion of external Ca^2+ with 5 mM EGTA.
To visualize the SOCE, cells were placed into the quartz cuvette and 0.5 EGTA was added just before the beginning of the recordings. To induce the SOCE, the cells were treated with 1 μM thapsigargin (TG) during 10 min in Ca^2+-free HBS to induce Ca^2+ release from the ER and the opening of SOCE channels. Then, 1 mM CaCl2 was added to measure the change in [Ca^2+]cyt subsequently to Ca^2+ influx. In the dose-response experiments, different concentrations of 2-APB and its analogs were added 30 s prior to Ca^2+ readdition.

IP3R1 = molecular target: T1, IP3R1 (Mus musculus, UniProt P11881); assay: IP3-induced Ca2+ release (IICR) in permeabilized L15 fibroblasts overexpressing IP3R1; assay type: cell-based; settings: permeabilized L15 fibroblasts
T1 construct: expressed in transfected cells; host or cells: L15 fibroblast cell line (gift of Katsuhiko Mikoshiba), saponin-permeabilized
Procedure: (§1) Measurements of SERCA-mediated ^45Ca^2+ store loading and IP3-dependent release from the ER Ca^2+ store were performed on permeabilized cells in unidirectional conditions. As this approach required the use of cells forming strongly adherent monolayers, we used L15 fibroblasts stably overexpressing IP3R1, similarly to our previous work.
(§2) The L15 fibroblasts stably overexpressing IP3R1 were seeded in gelatin-coated 12-well plates (Greiner, Frickenhausen, Germany) at a density of 60,000 cells per well. Unidirectional ^45Ca^2+ flux experiments on confluent cell monolayers were performed at 30 °C after membrane permeabilization with saponin (40 µg/mL), exactly as previously described. After permeabilization, the non-mitochondrial Ca^2+ stores were loaded for 45 min in 120 mM KCl, 30 mM imidazole–HCl (pH 6.8), 5 mM MgCl2, 5 mM ATP, 0.44 mM EGTA, 10 mM NaN3, and 150 nM free ^45Ca^2+ (28 µCi mL^−1). Subsequently, efflux was initiated by incubation in efflux medium (120 mM KCl, 1 mM EGTA, 10 µM TG and 30 mM imidazole–HCl pH 6.8). The latter medium was replaced every two minutes for 18 minutes. The exact amount of Ca^2+ at each time point is calculated by summing in retrograde order the amount of radioactivity remaining in the cells at the end of the efflux and the radioactivity collected during the successive time intervals. This allows to calculate the steady-state content of the ER Ca^2+ stores (indicative for the SERCA activity, after subtraction of the loading achieved in the presence of 2 µM TG) the basal leak rate of Ca^2+ out of the stores and the IP3-induced Ca^2+ release after addition of IP3 (0.7 µM). These various parameters were measured both in control conditions or in the presence of various 2-APB analogs as indicated. To assess the effect of the 2-APB analogs on the SERCA-mediated loading of the ER Ca^2+ stores, the analogs were added during the ^45Ca^2+-loading phase as described previously. […]

SERCA = SERCA (Mus musculus, UniProt O55143); assay: SERCA-mediated 45Ca2+ store loading in permeabilized L15 fibroblasts; assay type: cell-based; settings: 100 µM; read-out: change of SERCA activity
Procedure: as §1
The L15 fibroblasts stably overexpressing IP3R1 were seeded in gelatin-coated 12-well plates (Greiner, Frickenhausen, Germany) at a density of 60,000 cells per well. Unidirectional ^45Ca^2+ flux experiments on confluent cell monolayers were performed at 30 °C after membrane permeabilization with saponin (40 µg/mL), exactly as previously described. After permeabilization, the non-mitochondrial Ca^2+ stores were loaded for 45 min in 120 mM KCl, 30 mM imidazole–HCl (pH 6.8), 5 mM MgCl2, 5 mM ATP, 0.44 mM EGTA, 10 mM NaN3, and 150 nM free ^45Ca^2+ (28 µCi mL^−1). Subsequently, efflux was initiated by incubation in efflux medium (120 mM KCl, 1 mM EGTA, 10 µM TG and 30 mM imidazole–HCl pH 6.8). The latter medium was replaced every two minutes for 18 minutes. The exact amount of Ca^2+ at each time point is calculated by summing in retrograde order the amount of radioactivity remaining in the cells at the end of the efflux and the radioactivity collected during the successive time intervals. This allows to calculate the steady-state content of the ER Ca^2+ stores (indicative for the SERCA activity, after subtraction of the loading achieved in the presence of 2 µM TG) the basal leak rate of Ca^2+ out of the stores and the IP3-induced Ca^2+ release after addition of IP3 (0.7 µM). These various parameters were measured both in control conditions or in the presence of various 2-APB analogs as indicated. To assess the effect of the 2-APB analogs on the SERCA-mediated loading of the ER Ca^2+ stores, the analogs were added during the ^45Ca^2+-loading phase as described previously. Obviously, compounds that strongly stimulated the basal Ca^2+ leak out of the stores (as P8) could not be investigated for their effect on SERCA activity (as Ca^2+ loading was already compromised by the increased leak) or on IP3-induced Ca^2+ release (as the decreased luminal Ca^2+ level impacted both the driving force for Ca^2+ release and the sensitivity of the IP3R).

[2] = tested on: ER Ca2+ stores of L15 fibroblasts; assay: Basal Ca2+ leak from ER stores, unidirectional 45Ca2+ flux in permeabilized L15 fibroblasts; assay type: cell-based
Procedure: as §1
as §2, with “The latter medium was replaced every two minutes for 18 minutes.” left out, “This allows to calculate the steady-state content of the ER Ca^2+ stores (indicative for the SERCA activity, after subtraction of the loading achieved in the presence of 2 µM TG) the basal leak rate of Ca^2+ out of the stores and the IP3-induced Ca^2+ release after addition of IP3 (0.7 µM).” left out, “indicated.” for “indicated. To assess the effect of the 2-APB analogs on the SERCA-mediated loading of the ER Ca^2+ stores, the analogs were added during the ^45Ca^2+-loading phase as described previously.”

Jurkat cell SOCE [3] = settings: leukocyte SOCE; cited from earlier work
[4] = Jurkat cells, read-out: Ki (µM), inhibition constant on SOCE
[5] = Jurkat cells, read-out: Ki (nM), inhibition constant on SOCE

Chain of SERCA (O55143 whole entry): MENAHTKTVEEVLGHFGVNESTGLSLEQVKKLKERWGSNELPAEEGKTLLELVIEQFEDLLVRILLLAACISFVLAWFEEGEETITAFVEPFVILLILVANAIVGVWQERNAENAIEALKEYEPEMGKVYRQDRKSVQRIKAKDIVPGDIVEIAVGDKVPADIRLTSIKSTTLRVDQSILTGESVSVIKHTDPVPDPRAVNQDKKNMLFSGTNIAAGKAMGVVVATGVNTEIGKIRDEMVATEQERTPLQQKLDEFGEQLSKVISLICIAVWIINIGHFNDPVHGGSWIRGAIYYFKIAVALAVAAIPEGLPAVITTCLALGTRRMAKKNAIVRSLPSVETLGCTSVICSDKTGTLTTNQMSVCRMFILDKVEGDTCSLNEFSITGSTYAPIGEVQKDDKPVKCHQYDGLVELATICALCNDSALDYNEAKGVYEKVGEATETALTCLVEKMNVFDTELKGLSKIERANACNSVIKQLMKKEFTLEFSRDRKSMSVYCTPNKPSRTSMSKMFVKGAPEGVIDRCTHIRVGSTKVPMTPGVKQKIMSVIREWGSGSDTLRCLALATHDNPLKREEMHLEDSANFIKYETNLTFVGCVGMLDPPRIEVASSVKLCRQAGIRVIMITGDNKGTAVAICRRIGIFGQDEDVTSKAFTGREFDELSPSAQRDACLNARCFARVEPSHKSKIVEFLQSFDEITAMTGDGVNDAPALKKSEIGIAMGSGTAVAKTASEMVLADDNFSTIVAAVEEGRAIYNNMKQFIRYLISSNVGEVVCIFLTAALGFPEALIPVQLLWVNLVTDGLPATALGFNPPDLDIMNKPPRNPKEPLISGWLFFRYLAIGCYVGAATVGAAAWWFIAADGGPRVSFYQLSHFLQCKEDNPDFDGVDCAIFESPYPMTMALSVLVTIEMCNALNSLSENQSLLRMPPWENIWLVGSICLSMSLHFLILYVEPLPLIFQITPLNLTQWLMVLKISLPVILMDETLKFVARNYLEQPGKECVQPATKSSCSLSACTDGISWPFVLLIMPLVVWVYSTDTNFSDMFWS
T1 sequence (P11881 whole entry): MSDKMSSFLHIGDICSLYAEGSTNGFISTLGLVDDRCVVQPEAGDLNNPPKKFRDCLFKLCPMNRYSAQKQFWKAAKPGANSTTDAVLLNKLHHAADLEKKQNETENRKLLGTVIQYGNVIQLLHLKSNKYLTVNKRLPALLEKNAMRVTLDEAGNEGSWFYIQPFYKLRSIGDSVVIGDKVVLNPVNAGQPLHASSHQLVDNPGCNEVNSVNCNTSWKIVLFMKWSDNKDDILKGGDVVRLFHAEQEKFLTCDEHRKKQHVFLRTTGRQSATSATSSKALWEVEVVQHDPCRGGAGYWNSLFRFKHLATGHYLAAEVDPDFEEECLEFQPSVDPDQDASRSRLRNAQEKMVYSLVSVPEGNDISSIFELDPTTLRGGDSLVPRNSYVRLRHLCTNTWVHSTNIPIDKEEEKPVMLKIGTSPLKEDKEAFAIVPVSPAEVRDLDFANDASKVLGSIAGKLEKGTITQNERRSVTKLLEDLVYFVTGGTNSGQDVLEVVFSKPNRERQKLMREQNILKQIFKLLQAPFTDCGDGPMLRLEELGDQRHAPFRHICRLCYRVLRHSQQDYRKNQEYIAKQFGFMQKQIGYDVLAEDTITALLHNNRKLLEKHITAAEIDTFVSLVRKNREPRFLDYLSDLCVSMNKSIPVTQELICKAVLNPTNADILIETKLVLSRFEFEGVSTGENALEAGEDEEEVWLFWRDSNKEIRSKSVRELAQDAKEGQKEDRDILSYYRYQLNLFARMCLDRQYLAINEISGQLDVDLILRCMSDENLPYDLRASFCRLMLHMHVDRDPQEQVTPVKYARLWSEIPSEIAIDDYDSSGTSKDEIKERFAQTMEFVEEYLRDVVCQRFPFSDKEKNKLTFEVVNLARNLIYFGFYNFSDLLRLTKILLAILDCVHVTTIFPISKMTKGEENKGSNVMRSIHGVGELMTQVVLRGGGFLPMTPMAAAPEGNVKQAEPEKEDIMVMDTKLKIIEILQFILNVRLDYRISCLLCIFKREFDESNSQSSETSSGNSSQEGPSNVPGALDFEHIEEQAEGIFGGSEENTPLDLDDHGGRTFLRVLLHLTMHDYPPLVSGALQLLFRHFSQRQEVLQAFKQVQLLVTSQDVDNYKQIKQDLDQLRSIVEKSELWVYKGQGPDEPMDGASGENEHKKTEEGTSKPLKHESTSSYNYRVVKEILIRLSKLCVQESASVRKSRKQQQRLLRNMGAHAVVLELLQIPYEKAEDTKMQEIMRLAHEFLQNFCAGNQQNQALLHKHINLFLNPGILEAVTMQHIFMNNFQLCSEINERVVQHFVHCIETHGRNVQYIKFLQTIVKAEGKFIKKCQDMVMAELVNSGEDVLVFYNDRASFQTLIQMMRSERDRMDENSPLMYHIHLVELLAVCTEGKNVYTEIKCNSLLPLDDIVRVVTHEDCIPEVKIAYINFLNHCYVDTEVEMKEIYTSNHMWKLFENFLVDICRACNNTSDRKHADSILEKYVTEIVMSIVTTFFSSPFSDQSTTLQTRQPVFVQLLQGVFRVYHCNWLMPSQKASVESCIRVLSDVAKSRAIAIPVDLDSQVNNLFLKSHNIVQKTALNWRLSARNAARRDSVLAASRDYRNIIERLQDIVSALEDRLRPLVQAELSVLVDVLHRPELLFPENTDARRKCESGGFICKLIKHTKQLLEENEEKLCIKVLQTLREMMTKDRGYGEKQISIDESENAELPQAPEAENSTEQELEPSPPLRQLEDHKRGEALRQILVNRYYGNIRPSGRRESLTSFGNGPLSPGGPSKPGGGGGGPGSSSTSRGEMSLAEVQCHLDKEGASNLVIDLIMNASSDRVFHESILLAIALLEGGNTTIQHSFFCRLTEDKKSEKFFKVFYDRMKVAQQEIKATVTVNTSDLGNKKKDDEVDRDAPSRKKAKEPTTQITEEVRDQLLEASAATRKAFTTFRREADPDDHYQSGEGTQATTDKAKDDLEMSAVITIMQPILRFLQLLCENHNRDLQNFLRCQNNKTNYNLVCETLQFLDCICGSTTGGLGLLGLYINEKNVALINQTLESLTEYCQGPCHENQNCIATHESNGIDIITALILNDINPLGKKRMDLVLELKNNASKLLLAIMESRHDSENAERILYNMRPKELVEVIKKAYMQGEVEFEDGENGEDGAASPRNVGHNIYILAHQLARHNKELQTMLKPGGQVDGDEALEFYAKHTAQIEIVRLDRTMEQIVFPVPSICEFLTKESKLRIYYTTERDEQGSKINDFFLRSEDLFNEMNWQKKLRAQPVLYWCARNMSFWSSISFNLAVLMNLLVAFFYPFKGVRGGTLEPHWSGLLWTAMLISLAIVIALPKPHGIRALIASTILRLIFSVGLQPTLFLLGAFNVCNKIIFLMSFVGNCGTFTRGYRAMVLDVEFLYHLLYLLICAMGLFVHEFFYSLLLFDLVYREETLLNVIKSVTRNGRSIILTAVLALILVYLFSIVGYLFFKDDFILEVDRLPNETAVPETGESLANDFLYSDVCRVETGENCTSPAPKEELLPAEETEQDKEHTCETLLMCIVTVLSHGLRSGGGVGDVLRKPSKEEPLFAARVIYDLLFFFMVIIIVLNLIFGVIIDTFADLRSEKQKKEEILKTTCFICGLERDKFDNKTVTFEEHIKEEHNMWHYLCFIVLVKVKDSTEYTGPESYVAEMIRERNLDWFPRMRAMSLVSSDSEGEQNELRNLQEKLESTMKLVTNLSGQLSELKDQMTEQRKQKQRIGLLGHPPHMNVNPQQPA

2-((bis(4-methoxyphenyl)boryl)oxy)ethanamine [P2]
Ki (Jurkat cell SOCE [1]; [4]): 3.5 ± 0.65 µM

Fc1ccc([B-]2(c3ccc(F)cc3)[NH2+]CCO2)cc1 [P14]
Ki (Jurkat cell SOCE [1]; [4]): 5.4 ± 0.3 µM

CCCCc1ccc([B-]2(c3ccc(CCCC)cc3)[NH2+]CCO2)cc1 [P9]
inhibition of IP3R activity (IP3R1): did not significantly inhibit
inhibition at 100 µM (SERCA): 52 ± 3%
Ki (Jurkat cell SOCE [1]; [5]): 0.641 ± 0.103 µM

2-((bis(3,5-dimethylphenyl)boryl)oxy)ethanamine [P10]
concentration of complete/full SOCE inhibition (Jurkat cell SOCE [1]; Jurkat cells): 3 µM
Ki (Jurkat cell SOCE [1]; [5]): 0.484 ± 0.116 µM
Ki (Jurkat cell SOCE [1]; [4]): ~0.5 µM

Cc1ccc([B-]2(c3ccc(C)c(Cl)c3)[NH2+]CCO2)cc1Cl [P15]
Ki (Jurkat cell SOCE [1]; [5]): 0.294 ± 0.074 µM
Ki (Jurkat cell SOCE [1]; [4]): ~0.3 µM

2-((di-p-tolylboryl)oxy)ethanamine [P3]
Ki (Jurkat cell SOCE [1]; [4]): 3.5 ± 0.6 µM

2-((di-m-tolylboryl)oxy)ethanamine [P5]
Ki (Jurkat cell SOCE [1]; [4]): 2.1 ± 0.6 µM

NCCOB(c1ccc2sccc2c1)c1ccc2sccc2c1 [P12, 2-(dibenzo[b]thiophen-5-ylboryloxy)ethanamine]
Ki (Jurkat cell SOCE [1]; [5]): 0.374 ± 0.096 µM

CC1(C)c2ccccc2-c2ccc([B-]3(c4ccc5c(c4)C(C)(C)c4ccccc4-5)[NH2+]CCO3)cc21 [P17]
Ki (Jurkat cell SOCE [1]; [4]): > 100 µM
effect on SOCE amplitude (Jurkat cell SOCE [1]; concentrations >3 µM, higher concentrations disrupted the fluorescence): no effect

2-((bis(3-methoxyphenyl)boryl)oxy)ethanamine [P4]
maximal inhibition of SOCE (Jurkat cell SOCE [1]; Jurkat cells): ≈ 80%
Ki (Jurkat cell SOCE [1]; [4]): 75 ± 21 µM

2-((bis(4-(tert-butyl)phenyl)boryl)oxy)ethanamine [P8]
Ca2+ leak from the ER by an IP3-independent pathway [2]: strong Ca^2+ leak
Ki (Jurkat cell SOCE [1]; [5]): 0.35 ± 0.04 µM

2-((bis(3,4-dimethylphenyl)boryl)oxy)ethanamine [P7]
Ki (Jurkat cell SOCE [1]; [5]): 0.751 ± 0.097 µM

2-(((4-methoxyphenyl)(p-tolyl)boryl)oxy)ethanamine [P16]
Ki (Jurkat cell SOCE [1]; [4]): 3.1 ± 0.6 µM

((diphenylboryl)oxy)ethanamine [2-APB, reference compound]
concentration of full SOCE block (Jurkat cell SOCE [3]): 20 to 30 µM
SOCE potentiation, % of control [Ca2+]cyt increase (Jurkat cell SOCE [1]; 5 µM, Jurkat cells): > 200%
SOCE inhibition (Jurkat cell SOCE [1]; 50 µM, Jurkat cells): almost total inhibition

Clc1ccc([B-]2(c3ccc(Cl)cc3)[NH2+]CCO2)cc1 [P13]
Ki (Jurkat cell SOCE [1]; [4]): 1.8 ± 0.1 µM

2-((di(naphthalen-2-yl)boryl)oxy)ethanamine [P6]
Ki (Jurkat cell SOCE [1]; [5]): 0.275 ± 0.017 µM

From article PMC7767506, “Synthesis and Characterization of Store-Operated Calcium Entry Inhibitors Active in the Submicromolar Range” (International Journal of Molecular Sciences, 2020)
